Experimental data as given in patent publication US11191811B2, “Osteocalcin as a treatment for frailty associated with aging” (THE TRUSTEES OF COLUMBIA UNIVERSITY IN THE CITY OF NEW YORK, priority 2014, dated 2021).
“Also recorded” adds a separate entry of the source.

Columns and labels:
C2C12 myoblasts = experiment: GLUT4 translocation to the plasma membrane (flow cytometry); format: cell-based
Text: Rather, it promoted the translocation of GLUT4 to the plasma membrane of C2C12 myoblasts that express both Gprc6a and Glut4. A similar increase in the accumulation of GLUT4 was observed after exercise in WT but not in Gprc6aMck−/− mice (FIG. 26I). Signaling through GPCRs can favor PI3K activation, leading to Akt phosphorylation, an event that favors the translocation of GLUT4 to the plasma membrane (Lopez-Ilasaca et al., 1997, Science 275:394-397). In agreement with this notion, Akt phosphorylation in muscles of Gprc6Mck−/− mice was decreased compared to muscles of control mice after exercise. […]
Glucose and insulin tolerance tests were performed as previously described (Lee et al., 2007, Cell 130:456-469). For in vivo glucose uptake, a bolus of 2-deoxy-d-[^3H]glucose (^3H-2-DG, Perkin Elmer) (10 μCi) was administered before an endurance run. ^3H-2-DG and ^3H-2-DG-6-P content in muscle was determined by liquid scintillation counter and normalized to muscle weight. […] GLUT4 translocation was determined by flow cytometry using an antibody against the extracellular domain of the GLUT4 protein (Santa Cruz, Sc-1606). […] To analyze mitochondrial function, myofibers were treated with three compounds in succession (oligomycin 10 μg/ml, FCCP 200 μM, rotenone 0.2 μM) and OCR was recorded following administration of each of them.

muscles of WT mice = experiment: Western blot of Akt, AMPK and HSL phosphorylation in muscles of WT mice given Ocn; format: in vivo, mouse
Protocol: FIG. 31. Osteocalcin treatment increases muscle function in young and old WT mice. (A-B) Performance during endurance exercise of 3 month-old WT, Gprc6af/f and Gprc6aMck−/− female mice treated with Ocn (n=6-10 per group). (C) Performance during endurance exercise of 12 and 15 month-old WT female mice treated with Ocn (n=6-10 per group). (D) Western blot analysis of Akt phosphorylation (Ser473) in muscles of WT mice injected with Ocn (500 ng/g) after a single bout of exercise. (E) Western blot analysis of AMPK phosphorylation ([…]) in muscles of WT mice injected with Ocn (500 ng/g) after a single bout of exercise. (F) Western blot analysis of HSL phosphorylation (Ser563) in muscles of WT mice injected with Ocn (500 ng/g) after a single bout of exercise. (G) Uptake of ^3H-2-DG in glycolytic (Gly—white quadriceps) and oxidative (Ox—red quadriceps) muscles after a single bout of exercise in 15 month-old WT mice receiving Ocn before running (n=5 per group). (H) Performance during endurance exercise of 10 month-old WT mice receiving Ocn for 28 days (n=7 per group). (I) Expression of Cd36, Fatp1 and Cpt1b in gastrocnemius of 10 month-old WT mice receiving Ocn for 28 days (n=7 per group). (J) Western blot analysis of Akt phosphorylation (Ser473) in muscles of WT mice receiving Ocn for 28 days (n=7 per group). (K) Schematic representation of how osteocalcin signaling in myofibers and IL-6 cooperate to increase exercise capacity.
To determine if osteocalcin has the same ability in older mice, 12 and 15 month-old mice that have low circulating osteocalcin levels were injected prior to running with 500 ng/g of body weight of osteocalcin in order to raise their circulating levels substantially. […] This was due to an increase in the phosphorylation of Akt, AMPK and HSL, as well as in glucose uptake, that occurred to a greater extent in oxidative muscles that express Gprc6a at the highest level, than in glycolytic muscles (FIG. 31C-F). Whether chronic delivery of osteocalcin through mini-pumps (90 ng/hour) for 28 days would increase muscle function in 9 month old mice that have the lowest circulating osteocalcin levels was also tested. […] This improved ability to perform exercise was caused in part by an increase in the expression in muscle of the fatty acid transporter Fatp1 and an activation of the Akt pathway (FIG. 31H-).

[1] = WT mice injected with Ocn (500 ng/g), after a single bout of exercise, listed as osteocalcin

For “uncarboxylated osteocalcin: Recombinant uncarboxylated mouse osteocalcin, bacterially produced, purified on glutathione beads and cleaved from the GST subunit by thrombin (YLGASVPSPDPLEPTREQCELNPACDELSDQYGLKTAYKRIYGITI)”, the “translocation of GLUT4 to the plasma membrane” value (C2C12 myoblasts) was “promoted”, the “phosphorylation of AMPK in muscle” value (muscles of WT mice; WT mice injected with Ocn (500 ng/g), after a single bout of exercise) was “increase” and the “phosphorylation of Akt in muscle” value (muscles of WT mice; WT mice injected with Ocn (500 ng/g), after a single bout of exercise, listed as Osteocalcin) was “induced”. For the same substance, the “phosphorylation of Akt in muscle” value (muscles of WT mice; [1]) was “increase”, the “phosphorylation of HSL (Ser563) in muscle” value (muscles of WT mice; [1]) was “enhanced; also recorded: increase” and the “Akt pathway in muscle” value (muscles of WT mice; mini-pumps 90 ng/hour for 28 days) was “activation”.
